target: T1, PAR1 (Homo sapiens, UniProt P25116); test: not given; conditions: ACS patients, TRACER phase III trial; cited from earlier work
T1 sequence (P25116 22-425): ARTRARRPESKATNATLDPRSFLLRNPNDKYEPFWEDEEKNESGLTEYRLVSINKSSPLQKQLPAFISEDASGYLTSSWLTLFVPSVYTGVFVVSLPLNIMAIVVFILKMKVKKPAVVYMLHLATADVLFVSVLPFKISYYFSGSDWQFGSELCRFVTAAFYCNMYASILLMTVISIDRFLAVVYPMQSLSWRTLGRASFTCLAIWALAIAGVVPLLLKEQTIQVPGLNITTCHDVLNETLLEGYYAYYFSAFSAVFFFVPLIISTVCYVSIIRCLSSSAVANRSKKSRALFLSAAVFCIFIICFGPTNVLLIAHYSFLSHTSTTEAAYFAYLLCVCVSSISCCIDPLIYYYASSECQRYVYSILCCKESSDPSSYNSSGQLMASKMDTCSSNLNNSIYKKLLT

Compound | cardiovascular events | risk of major bleeding
CCOC(=O)N[C@@H]1CC[C@@H]2[C@@H](C1)C[C@H]1C(=O)O[C@H](C)[C@H]1[C@H]2/C=C/c1ccc(-c2cccc(F)c2)cn1 [vorapaxar] | did not significantly reduce | significantly increased

target: T2, protease-activated receptor type 4 (PAR4) (Homo sapiens, UniProt Q96RI0); test: not given; conditions: abstract of Lee et al. 2001; cited from earlier work
T2 sequence (Q96RI0 18-385): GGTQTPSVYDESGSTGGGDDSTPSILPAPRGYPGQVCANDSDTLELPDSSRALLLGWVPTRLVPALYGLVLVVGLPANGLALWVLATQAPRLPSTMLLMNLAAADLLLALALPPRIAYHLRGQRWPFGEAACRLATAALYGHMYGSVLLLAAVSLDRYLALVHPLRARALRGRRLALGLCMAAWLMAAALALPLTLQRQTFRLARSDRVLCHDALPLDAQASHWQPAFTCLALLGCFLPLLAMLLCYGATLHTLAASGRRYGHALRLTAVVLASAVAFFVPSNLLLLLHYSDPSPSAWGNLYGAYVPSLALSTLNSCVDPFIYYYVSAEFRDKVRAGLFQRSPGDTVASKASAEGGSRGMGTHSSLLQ

Compound | inhibition of PAR4-dependent platelet activation
CCOC(=O)c1ccc(-c2nn(Cc3ccccc3)c3ccccc23)cc1 [YD-3, ethyl 4-(1-benzyl-1H-indazol-3-yl)benzoate] | selective and potent inhibitor

target: T3, human PAR4 (Homo sapiens, UniProt Q96RI0); test: PAR4 FLIPR assay: antagonism of agonist-peptide-induced calcium mobilization in PAR4-expressing HEK293 cells; format: cell-based; conditions: H-Ala-Phe(4-F)-[…]NH2-induced intracellular calcium mobilization, 11-point curves
T3 construct: expressed in transfected cells; host or cells: HEK293 PAR4 Clone 1.2A (BMS Arctic ID 383940)
T3 sequence (Q96RI0 18-385): T2 sequence (Q96RI0 18-385)

Compound | IC50
CCOc1cnc2c(-c3nc4c(C(O)C(C)(C)C)cc(OC)cc4s3)cc(C)cc2n1 (stereo not drawn) [Example 817, 1-(2-(2-ethoxy-7-methylquinoxalin-5-yl)-6-methoxybenzo[d]thiazol-4-yl)-2,2-dimethylpropan-1-ol] | 3.6 nM
COc1cnc2c(-c3nc4cc(F)c(OC[C@@H](C)OC(=O)Nc5ccc(C#N)nc5)cc4s3)cc(C#N)cc2n1 [Example 818, (R)-1-((2-(7-cyano-2-methoxyquinoxalin-5-yl)-5-fluorobenzo[d]thiazol-6-yl)oxy)propan-2-yl (6-cyanopyridin-3-yl)carbamate] | 1.8 nM
COc1cnc2c(-c3nc4cc(F)c(O[C@@H](C)[C@@H](C)OC(=O)Nc5cnc(OC)nc5)cc4s3)cc(Cl)cc2n1 [Example 820, (2R,3S)-3-((2-(7-chloro-2-methoxyquinoxalin-5-yl)-5-fluorobenzo[d]thiazol-6-yl)oxy)butan-2-yl (2-methoxypyrimidin-5-yl)carbamate] | 1.7 nM
COc1ccc(NC(=O)O[C@H](C)[C@H](C)Oc2cc3sc(-c4cc(Cl)cc5nc(OC)cnc45)nc3cc2F)cn1 [Example 821, (2R,3S)-3-((2-(7-chloro-2-methoxyquinoxalin-5-yl)-5-fluorobenzo[d]thiazol-6-yl)oxy)butan-2-yl (6-methoxypyridin-3-yl)carbamate] | 4.6 nM
COc1cnc2c(-c3nc4cc(F)c(O[C@@H](C)[C@@H](C)OC(=O)Nc5ccc(C)nc5)cc4s3)cc(C#N)cc2n1 [Example 823, (2R,3S)-3-((2-(7-cyano-2-methoxyquinoxalin-5-yl)-5-fluorobenzo[d]thiazol-6-yl)oxy)butan-2-yl (6-methylpyridin-3-yl)carbamate] | 5.1 nM
COc1cnc2c(-c3nc4cc(F)c(O[C@@H](C)[C@@H](C)OC(=O)Nc5cnc(C)nc5)cc4s3)cc(C#N)cc2n1 [Example 825, (2R,3S)-3-((2-(7-cyano-2-methoxyquinoxalin-5-yl)-5-fluorobenzo[d]thiazol-6-yl)oxy)butan-2-yl (2-methylpyrimidin-5-yl)carbamate] | 8 nM
COc1cnc2c(-c3nc4cc(F)c(O[C@@H](C)[C@@H](C)OC(=O)Nc5cncc(C#N)c5)cc4s3)cc(Cl)cc2n1 [Example 826, (2R,3S)-3-((2-(7-chloro-2-methoxyquinoxalin-5-yl)-5-fluorobenzo[d]thiazol-6-yl)oxy)butan-2-yl (5-cyanopyridin-3-yl)carbamate] | 1.9 nM
Cc1cc(-c2nc3cc(F)c(O[C@@H](C)[C@@H](C)OC(=O)Nc4cnc(C)nc4)cc3s2)c2ncc(OCC(F)F)nc2c1 [Example 827, (2R,3S)-3-((2-(2-(2,2-difluoroethoxy)-7-methylquinoxalin-5-yl)-5-fluorobenzo[d]thiazol-6-yl)oxy)butan-2-yl (2-methylpyrimidin-5-yl)carbamate] | 6.2 nM
COc1cnc2c(-c3nc4cc(F)c(O[C@@H](C)[C@@H](C)OC(=O)Nc5ccc(CO)nc5)cc4s3)cc(Cl)cc2n1 [Example 831, (2R,3S)-3-((2-(7-chloro-2-methoxyquinoxalin-5-yl)-5-fluorobenzo[d]thiazol-6-yl)oxy)butan-2-yl (6-(hydroxymethyl)pyridin-3-yl)carbamate] | 2.2 nM
CNC(=O)c1ccc(NC(=O)O[C@H](C)[C@H](C)Oc2cc3sc(-c4cc(Cl)cc5nc(OC)cnc45)nc3cc2F)cn1 [Example 832, (2R,3S)-3-((2-(7-chloro-2-methoxyquinoxalin-5-yl)-5-fluorobenzo[d]thiazol-6-yl)oxy)butan-2-yl (6-(methylcarbamoyl)pyridin-3-yl)carbamate] | 2.5 nM
COc1cnc2c(-c3nc4cc(F)c(O[C@@H](C)[C@@H](C)OC(=O)Nc5ccc(C(=O)N(C)C)nc5)cc4s3)cc(Cl)cc2n1 [Example 834, (2R,3S)-3-((2-(7-chloro-2-methoxyquinoxalin-5-yl)-5-fluorobenzo[d]thiazol-6-yl)oxy)butan-2-yl (6-(dimethylcarbamoyl)pyridin-3-yl)carbamate] | 3 nM
COc1cc(C)c2nc(-c3cc(Cl)cc4nc(OC)cnc34)sc2c1 [Example 837, 2-(7-chloro-2-methoxyquinoxalin-5-yl)-6-methoxy-4-methylbenzo[d]thiazole] | 17 nM

The next lines start with the values.

IC50 | Compound
1.2 nM | COc1cnc2c(-c3nc4cc(F)c(OC[C@@H](C)OC(=O)Nc5cnc(C)nc5)cc4s3)cc(C#N)cc2n1 [Example 819, (R)-1-((2-(7-cyano-2-methoxyquinoxalin-5-yl)-5-fluorobenzo[d]thiazol-6-yl)oxy)propan-2-yl (2-methylpyrimidin-5-yl)carbamate]
1.6 nM | COc1cnc2c(-c3nc4cc(F)c(O[C@@H](C)[C@@H](C)OC(=O)Nc5ccc(C)nc5)cc4s3)cc(Cl)cc2n1 [Example 822, (2R,3S)-3-((2-(7-chloro-2-methoxyquinoxalin-5-yl)-5-fluorobenzo[d]thiazol-6-yl)oxy)butan-2-yl (6-methylpyridin-3-yl)carbamate]
1.5 nM | COc1cnc2c(-c3nc4cc(F)c(O[C@@H](C)[C@@H](C)OC(=O)Nc5cnc(C)nc5)cc4s3)cc(Cl)cc2n1 [Example 824, (2R,3S)-3-((2-(7-chloro-2-methoxyquinoxalin-5-yl)-5-fluorobenzo[d]thiazol-6-yl)oxy)butan-2-yl (2-methylpyrimidin-5-yl)carbamate]
0.7 nM | COc1cnc2c(-c3nc4cc(F)c(O[C@@H](C)[C@@H](C)OC(=O)Nc5ccc(C#N)nc5)cc4s3)cc(C#N)cc2n1 [Example 828, (2R,3S)-3-((2-(7-cyano-2-methoxyquinoxalin-5-yl)-5-fluorobenzo[d]thiazol-6-yl)oxy)butan-2-yl (6-cyanopyridin-3-yl)carbamate]
0.6 nM | COc1cnc2c(-c3nc4cc(F)c(O[C@@H](C)[C@@H](C)OC(=O)Nc5ccc(C#N)nc5)cc4s3)cc(Cl)cc2n1 [Example 829, (2R,3S)-3-((2-(7-chloro-2-methoxyquinoxalin-5-yl)-5-fluorobenzo[d]thiazol-6-yl)oxy)butan-2-yl (6-cyanopyridin-3-yl)carbamate]
1.6 nM | COC(=O)c1ccc(NC(=O)O[C@H](C)[C@H](C)Oc2cc3sc(-c4cc(Cl)cc5nc(OC)cnc45)nc3cc2F)cn1 [Example 830, methyl 5-(((((2R,3S)-3-((2-(7-chloro-2-methoxyquinoxalin-5-yl)-5-fluorobenzo[d]thiazol-6-yl)oxy)butan-2-yl)oxy)carbonyl)amino)picolinate]
1.6 nM | COc1cnc2c(-c3nc4cc(F)c(O[C@@H](C)[C@@H](C)OC(=O)Nc5ccc(C(N)=O)nc5)cc4s3)cc(Cl)cc2n1 [Example 833, (2R,3S)-3-((2-(7-chloro-2-methoxyquinoxalin-5-yl)-5-fluorobenzo[d]thiazol-6-yl)oxy) butan-2-yl (6-carbamoylpyridin-3-yl)carbamate]
0.5 nM | COc1cnc2c(-c3nc4cc(F)c(O[C@@H](C)[C@@H](C)OC(=O)Nc5ccc(CC(C)(C)O)nc5)cc4s3)cc(Cl)cc2n1 [Example 835, (2R,3S)-3-((2-(7-chloro-2-methoxyquinoxalin-5-yl)-5-fluorobenzo[d]thiazol-6-yl)oxy)butan-2-yl (6-(2-hydroxy-2-methylpropyl)pyridin-3-yl)carbamate]
1.2 nM | COc1cnc2c(-c3nc4cc(F)c(O[C@@H](C)[C@@H](C)OC(=O)Nc5ccc(CCO)nc5)cc4s3)cc(Cl)cc2n1 [Example 836, (2R,3S)-3-((2-(7-chloro-2-methoxyquinoxalin-5-yl)-5-fluorobenzo[d]thiazol-6-yl)oxy)butan-2-yl (6-(2-hydroxyethyl)pyridin-3-yl)carbamate]
